Measured values reported in PubChem BioAssay AID1963874 (Molecular Pharmacology Branch, DTP, NCI, 2024).

System: 253994-281-T-J1-PDC KRAS-mutant spheroids with HUVEC/MSC, viability
Experiment: Anticancer human tumor 253994-281-T-J1-PDC patient-derived colorectal carcinoma cell line growth inhibition [KRAS2]
Conditions: for viability, T/C: stronger effect = lower value
Outline: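 Combination screen of spheroid viability in tumor-cell co-cultures with endothelial (HUVEC) and mesenchymal stem cell stroma. Each agent was tested in half-log dilutions, topping at clinical Cmax or at 10 microM without a known Cmax.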

[1] = curve of first compound, second compound 0.1 µM
[2] = curve of first compound, second compound 0.316 µM
[3] = curve of first compound, second compound 1 µM
[4] = curve of first compound, second compound 3.16 µM
[5] = curve of first compound, second compound 10 µM
[6] = second compound 0.1 µM, first compound 0.000316 µM
[7] = second compound 0.1 µM, first compound 0.001 µM
[8] = second compound 0.1 µM, first compound 0.00316 µM
[9] = second compound 0.1 µM, first compound 0.01 µM
[10] = second compound 0.1 µM, first compound 0.0316 µM
[11] = second compound 0.316 µM, first compound 0.000316 µM
[12] = second compound 0.316 µM, first compound 0.001 µM
[13] = second compound 0.316 µM, first compound 0.00316 µM
[14] = second compound 0.316 µM, first compound 0.01 µM
[15] = second compound 0.316 µM, first compound 0.0316 µM
[16] = second compound 1 µM, first compound 0.000316 µM
[17] = second compound 1 µM, first compound 0.001 µM
[18] = second compound 1 µM, first compound 0.00316 µM
[19] = second compound 1 µM, first compound 0.01 µM
[20] = second compound 1 µM, first compound 0.0316 µM
[21] = second compound 3.16 µM, first compound 0.000316 µM
[22] = second compound 3.16 µM, first compound 0.001 µM
[23] = second compound 3.16 µM, first compound 0.00316 µM
[24] = second compound 3.16 µM, first compound 0.01 µM
[25] = second compound 3.16 µM, first compound 0.0316 µM
[26] = second compound 10 µM, first compound 0.000316 µM
[27] = second compound 10 µM, first compound 0.001 µM
[28] = second compound 10 µM, first compound 0.00316 µM
[29] = second compound 10 µM, first compound 0.01 µM
[30] = second compound 10 µM, first compound 0.0316 µM
[31] = second compound 0.1 µM, first compound 0.1 µM
[32] = second compound 0.316 µM, first compound 0.1 µM
[33] = second compound 1 µM, first compound 0.1 µM
[34] = second compound 3.16 µM, first compound 0.1 µM
[35] = second compound 0.1 µM, first compound 0.316 µM
[36] = second compound 0.1 µM, first compound 1 µM
[37] = second compound 0.1 µM, first compound 3.16 µM
[38] = second compound 0.316 µM, first compound 0.316 µM
[39] = second compound 0.316 µM, first compound 1 µM
[40] = second compound 0.316 µM, first compound 3.16 µM
[41] = second compound 1 µM, first compound 0.316 µM
[42] = second compound 1 µM, first compound 1 µM
[43] = second compound 1 µM, first compound 3.16 µM
[44] = second compound 3.16 µM, first compound 0.316 µM
[45] = second compound 3.16 µM, first compound 1 µM
[46] = second compound 3.16 µM, first compound 3.16 µM
[47] = second compound 10 µM, first compound 0.1 µM
[48] = second compound 10 µM, first compound 0.316 µM
[49] = second compound 10 µM, first compound 1 µM
[50] = second compound 10 µM, first compound 3.16 µM
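Note: spheroids exposed to agents for seven days before readout.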
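Throughout, for viability, T/C: percent of DMSO vehicle control viability.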

## CC(=O)Nc1cccc(-n2c(=O)n(C3CC3)c(=O)c3c(Nc4ccc(I)cc4F)n(C)c(=O)c(C)c32)c1 + CNCc1ccccc1-c1csc(C(C)Nc2nc(C)nc3cc(OC)c(OC)cc23)c1
[1]
  IC50: 0.000649 µM
[2]
  IC50: 0.000415 µM
[3]
  IC50: 0.000205 µM
[4]
  IC50: < 0.0001 µM
[5]
  IC50: < 0.0001 µM
Second compound 0.1 µM, first compound 0.0001 µM
  viability, T/C: 81.3%
[6]
  viability, T/C: 81.5%
[7]
  viability, T/C: 31.4%
[8]
  viability, T/C: 19%
[9]
  viability, T/C: 10.6%
[10]
  viability, T/C: 5.26%
Second compound 0.316 µM, first compound 0.0001 µM
  viability, T/C: 80.2%
[11]
  viability, T/C: 57.2%
[12]
  viability, T/C: 28.7%
[13]
  viability, T/C: 17.2%
[14]
  viability, T/C: 10.9%
[15]
  viability, T/C: 4.68%
Second compound 1 µM, first compound 0.0001 µM
  viability, T/C: 67.4%
[16]
  viability, T/C: 39.9%
[17]
  viability, T/C: 16.3%
[18]
  viability, T/C: 10.7%
[19]
  viability, T/C: 7.62%
[20]
  viability, T/C: 3.86%
Second compound 3.16 µM, first compound 0.0001 µM
  viability, T/C: 5.81%
[21]
  viability, T/C: 1.42%
[22]
  viability, T/C: 0.92%
[23]
  viability, T/C: 0.18%
[24]
  viability, T/C: 0.16%
[25]
  viability, T/C: 0.34%
Second compound 10 µM, first compound 0.0001 µM
  viability, T/C: 0.16%
[26]
  viability, T/C: 0.15%
[27]
  viability, T/C: 0.14%
[28]
  viability, T/C: 0.18%
[29]
  viability, T/C: 0.12%
[30]
  viability, T/C: 0.21%

## CN(C)C/C=C/C(=O)Nc1cc2c(Nc3ccc(F)c(Cl)c3)ncnc2cc1O[C@H]1CCOC1 + C=CC(=O)N1CCN(c2nc(OCC3CCCN3C)nc3c2CCN(c2cccc4cccc(C)c24)C3)CC1CC#N
Curve of first compound, second compound 0.0316 µM
  IC50: > 0.1 µM
[1]
  IC50: > 0.1 µM
[2]
  IC50: > 0.1 µM
[3]
  IC50: > 0.1 µM
[4]
  IC50: 0.00072 µM
Second compound 0.0316 µM, first compound 0.000316 µM
  viability, T/C: 95.7%
Second compound 0.0316 µM, first compound 0.001 µM
  viability, T/C: 89.4%
Second compound 0.0316 µM, first compound 0.00316 µM
  viability, T/C: 92.3%
Second compound 0.0316 µM, first compound 0.01 µM
  viability, T/C: 95.7%
Second compound 0.0316 µM, first compound 0.0316 µM
  viability, T/C: 88.5%
Second compound 0.0316 µM, first compound 0.1 µM
  viability, T/C: 54%
[6]
  viability, T/C: 83.2%
[7]
  viability, T/C: 91.5%
[8]
  viability, T/C: 76.6%
[9]
  viability, T/C: 86.1%
[10]
  viability, T/C: 69.2%
[31]
  viability, T/C: 53.8%
[11]
  viability, T/C: 95.7%
[12]
  viability, T/C: 81.3%
[13]
  viability, T/C: 87.5%
[14]
  viability, T/C: 77.4%
[15]
  viability, T/C: 78.3%
[32]
  viability, T/C: 66.5%
[16]
  viability, T/C: 97.9%
[17]
  viability, T/C: 108%
[18]
  viability, T/C: 83.1%
[19]
  viability, T/C: 69.4%
[20]
  viability, T/C: 73.1%
[33]
  viability, T/C: 62.2%
[21]
  viability, T/C: 53.8%
[22]
  viability, T/C: 48.5%
[23]
  viability, T/C: 4.58%
[24]
  viability, T/C: 22%
[25]
  viability, T/C: 19.6%
[34]
  viability, T/C: 5.55%

## CC1(C)CCC(CN2CCN(c3ccc(C(=O)NS(=O)(=O)c4ccc(NCC5CCOCC5)c([N+](=O)[O-])c4)c(Oc4cnc5[nH]ccc5c4)c3)CC2)=C(c2ccc(Cl)cc2)C1
Compound 0.0316 µM
  viability, T/C: 94.2% [middle of 5 runs]
Compound 0.1 µM
  viability, T/C: 97.9% [middle of 5 runs]
Compound 0.316 µM
  viability, T/C: 90.5% [middle of 5 runs]
Compound 1 µM
  viability, T/C: 91.5% [middle of 5 runs]
Compound 3.16 µM
  viability, T/C: 84.5% [middle of 5 runs]
Curve of compound
  IC50: > 10 µM

## CC1COCCN1c1cc(-c2ccnn2C)c2ccnc(-c3ccn[nH]3)c2n1 (stereo not drawn) + CC1OCC2(CCN(c3cnc(Sc4ccnc(N)c4Cl)c(N)n3)CC2)C1N
[1]
  IC50: 0.28 µM
[2]
  IC50: 0.141 µM
[3]
  IC50: 0.116 µM
[4]
  IC50: 0.0497 µM
[5]
  IC50: < 0.01 µM
[9]
  viability, T/C: 87%
[10]
  viability, T/C: 81.8%
[31]
  viability, T/C: 62.9%
[35]
  viability, T/C: 44%
[36]
  viability, T/C: 47%
[37]
  viability, T/C: 53.1%
[14]
  viability, T/C: 87.5%
[15]
  viability, T/C: 83%
[32]
  viability, T/C: 55.4%
[38]
  viability, T/C: 33.3%
[39]
  viability, T/C: 36.4%
[40]
  viability, T/C: 43.6%
[19]
  viability, T/C: 75.2%
[20]
  viability, T/C: 70.4%
[33]
  viability, T/C: 52.8%
[41]
  viability, T/C: 30.9%
[42]
  viability, T/C: 27.6%
[43]
  viability, T/C: 38%
[24]
  viability, T/C: 59.5%
[25]
  viability, T/C: 58.9%
[34]
  viability, T/C: 35.8%
[44]
  viability, T/C: 24.1%
[45]
  viability, T/C: 24.3%
[46]
  viability, T/C: 28.2%
[29]
  viability, T/C: 43%
[30]
  viability, T/C: 53.4%
[47]
  viability, T/C: 25.1%
[48]
  viability, T/C: 16.7%
[49]
  viability, T/C: 18.9%
[50]
  viability, T/C: 23.6%

## COc1cc2nccc(Oc3ccc(NC(=O)C4(C(=O)Nc5ccc(F)cc5)CC4)cc3)c2cc1OC
Compound 0.0316 µM
  viability, T/C: 99.7% [middle of 5 runs]
Compound 0.1 µM
  viability, T/C: 108% [middle of 5 runs]
Compound 0.316 µM
  viability, T/C: 92.9% [middle of 5 runs]
Compound 1 µM
  viability, T/C: 93.9% [middle of 5 runs]
Compound 3.16 µM
  viability, T/C: 89.8% [middle of 5 runs]
Compound 10 µM
  viability, T/C: 76.9% [middle of 5 runs]
Curve of compound
  IC50: > 10 µM

## COC(=O)c1ccc2c(C(=Nc3ccc(N(C)C(=O)CN4CCN(C)CC4)cc3)c3ccccc3)c(O)[nH]c2c1 + CC1OCC2(CCN(c3cnc(Sc4ccnc(N)c4Cl)c(N)n3)CC2)C1N
[1]
  IC50: > 10 µM
[2]
  IC50: 3.48 µM
[3]
  IC50: 1.46 µM
[4]
  IC50: 0.156 µM
[5]
  IC50: < 0.0316 µM
[10]
  viability, T/C: 97.8%
[31]
  viability, T/C: 87.2%
[35]
  viability, T/C: 82.7%
[36]
  viability, T/C: 85.3%
[37]
  viability, T/C: 81.8%
Second compound 0.1 µM, first compound 10 µM
  viability, T/C: 70.7%
[15]
  viability, T/C: 82.7%
[32]
  viability, T/C: 67%
[38]
  viability, T/C: 68.9%
[39]
  viability, T/C: 85.2%
[40]
  viability, T/C: 53.2%
Second compound 0.316 µM, first compound 10 µM
  viability, T/C: 15%
[20]
  viability, T/C: 53.8%
[33]
  viability, T/C: 50.9%
[41]
  viability, T/C: 62.1%
[42]
  viability, T/C: 51.7%
[43]
  viability, T/C: 43.3%
Second compound 1 µM, first compound 10 µM
  viability, T/C: 17.8%
[25]
  viability, T/C: 56.1%
[34]
  viability, T/C: 52%
[44]
  viability, T/C: 42.9%
[45]
  viability, T/C: 40.7%
[46]
  viability, T/C: 26.8%
Second compound 3.16 µM, first compound 10 µM
  viability, T/C: 1.64%
[30]
  viability, T/C: 35%
[47]
  viability, T/C: 35%
[48]
  viability, T/C: 31.4%
[49]
  viability, T/C: 20%
[50]
  viability, T/C: 4.21%
Second compound 10 µM, first compound 10 µM
  viability, T/C: 0.83%

## Cn1ncnc1[C@H]1c2n[nH]c(=O)c3cc(F)cc(c23)N[C@@H]1c1ccc(F)cc1 + C=CC(=O)N1CCN(c2nc(=O)n(-c3c(C)ccnc3C(C)C)c3nc(-c4c(O)cccc4F)c(F)cc23)C(C)C1
[1]
  IC50: > 0.1 µM
[2]
  IC50: > 0.1 µM
[3]
  IC50: > 0.1 µM
[4]
  IC50: > 0.1 µM
[5]
  IC50: > 0.1 µM
[6]
  viability, T/C: 113%
[7]
  viability, T/C: 94.8%
[8]
  viability, T/C: 99.7%
[9]
  viability, T/C: 102%
[10]
  viability, T/C: 96.5%
[31]
  viability, T/C: 92.2%
[11]
  viability, T/C: 113%
[12]
  viability, T/C: 102%
[13]
  viability, T/C: 96.6%
[14]
  viability, T/C: 101%
[15]
  viability, T/C: 97.1%
[32]
  viability, T/C: 92.8%
[16]
  viability, T/C: 99.9%
[17]
  viability, T/C: 105%
[18]
  viability, T/C: 97.9%
[19]
  viability, T/C: 92.1%
[20]
  viability, T/C: 114%
[33]
  viability, T/C: 103%
[21]
  viability, T/C: 97.7%
[22]
  viability, T/C: 109%
[23]
  viability, T/C: 107%
[24]
  viability, T/C: 89.1%
[25]
  viability, T/C: 111%
[34]
  viability, T/C: 99.5%
[26]
  viability, T/C: 116%
[27]
  viability, T/C: 106%
[28]
  viability, T/C: 94.3%
[29]
  viability, T/C: 96%
[30]
  viability, T/C: 91.6%
[47]
  viability, T/C: 96.8%
